Patent US8343475B2, “Small cationic antimicrobial peptides” (priority 2006, dated 2013)
Residues, ends and D or L forms follow the SMILES beside them.

Tests used:
S. aureus = assay: Mouse model of aggressive bacterial infection (intraperitoneal); assay type: in vivo; conditions: 1.6×10^10 CFU S. aureus IP; 8 mg/kg peptide IP four hours post infection
Procedure: FIG. 10. Ability of new antimicrobial peptides HHC-10 and HHC-36 to protect mice against Staph aureus infections. Bacterial loads in the peritoneal lavage from individual mice after 24 hours of infection are shown (solid circles). Dead animals were assigned the highest colony forming unit (CFU) count obtained in the experiment. The solid line represents the arithmetic mean for each group.
(§1) FIG. 18. […] Mice were treated with 1.6×10^10 CFU of S. aureus intraperitoneally. Four hours post infection they received a dose of 8 mg/kg peptide IP. The infection was allowed to progress for 4 or 24 hours after which mice were euthanaised and plate counts of staphylococci surviving in the peritoneum were determined. Bacterial loads in the peritoneal lavage from individual mice after 24 hours of infection are shown (solid circles). The solid line represents the arithmetic mean for each group.
as §1, with “19.” for “18.”
To further confirm this, a mouse model of aggressive bacterial infection, widely used to assess antibiotic efficacy, was utilized. Mice were treated with 1.6×10^10 CFU IP. Four hours post infection they received a dose of 4 mg/kg peptide IP. The infection was allowed to progress for 20 more hours, for a total infection time of 24 hours.
These immunomodulatory activities led to protection against infections by S. aureus. Briefly a mouse model of aggressive bacterial infection, widely used to assess antibiotic efficacy, was utilized. […] The infection was allowed to progress for 4 or 24 hours after which mice were euthanaised and plate counts of staphylococci surviving in the peritoneum were determined.

[1] = system: IL8 release by human PBMC; assay: Chemokine induction in PBMC (capture ELISA); assay type: cell-based; conditions: 20 or 100 μg/ml peptide, 24 hours (FIG. 14)
Procedure: FIG. 14. Induction of IL8 release by 7.5×10^5 human PBMC in response to treatment with 20 or 100 μg/ml of different peptides for 24 hours.
(§2) Venous blood (20 ml) from healthy volunteers was collected in Vacutainer® collection tubes containing sodium heparin as an anticoagulant (Becton Dickinson, Mississauga, ON) in accordance with UBC ethical approval and guidelines. Blood was diluted 1:1 with complete RPMI 1640 medium and separated by centrifugation over a Ficoll-Paque® Plus (Amersham Biosciences, Piscataway, N.J., USA) density gradient. White blood cells were isolated from the buffy coat, washed twice in RPMI 1640 complete medium, and the number of peripheral blood mononuclear cells (PBMC) was determined by trypan blue exclusion. PBMC (5×10^5) were seeded into 12-well tissue culture dishes (Falcon; Becton Dickinson) at 0.75 to 1×10^6 cells/ml at 37° C. in 5% CO2. The above conditions were chosen to mimic conditions for circulating blood monocytes entering tissues at the site of infection via extravasation.
(§3) Following incubation of the cells under various treatment regimens, the tissue culture supernatants were centrifuged at 1000×g for 5 min, then at 10,000×g for 2 min to obtain cell-free samples. Supernatants were aliquoted and then stored at −20° C. prior to assay for various chemokines by capture ELISA (eBioscience and BioSource International Inc., CA, USA respectively)

[2] = system: MCP-1 release by human PBMC; assay: Chemokine induction in PBMC (capture ELISA); assay type: cell-based; conditions: for Chemokine induction MCP-1: background (204) subtracted
Outline: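 Heparinized blood from healthy volunteers; Ficoll-isolated human PBMC (7.5×10^5) treated with peptides at 20 or 100 μg/ml for 24 hours at 37° C, 5% CO2. Cell-free supernatants assayed for MCP-1 by capture ELISA.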

human PBMC = assay: Adjuvant properties: cytokine/chemokine induction by peptides alone and with CpG oligonucleotides and polyphosphazene P6; assay type: cell-based; conditions: peptide alone 20 ug/mL, background subtracted
Procedure: as §2, §3
It is well accepted that vaccine immunization is best achieved by co-administration of an adjuvant. The precise mechanism by which these adjuvants work has eluded immunologists but appears to work in part by upregulating elements of innate immunity that smooth the transition to adaptive (antigen-specific) immunity (Bendelac A and R. Medzhitov. 2002. Adjuvants of immunity: Harnessing innate immunity to promote adaptive immunity J. Exp. Med. 195:F19-F23). Within this concept there are several possible avenues by which adjuvants might work including the attraction of immune cells into the site at which a particular antigen is injected, through e.g., upregulation of chemokines, the appropriate activation of cells when they reach that site, which can be caused by local cell or tissue damage releasing endogenous adjuvants or through specific cell activation by the adjuvants, and the compartmentalization of immune responses to the site of immunization (the so-called “depot” effect). […] Therefore we studies the ability of our small host defence peptides to upregulate adjuvant responses in both human PBMC and cord blood mononuclear cells (CBMC) (representing the responses of blood cells from neonates), both alone (Table 10 and 11) and in combination with other proposed adjuvant agents that might work through other mechanisms such as CpG oligodeoxy ribonucleotides (TLR9 agionists that activate cells through interaction with TLR9 and fit into 3 different classes A=molecule 2336, B=10103 and C=2395), and polyphosphazene P6 (which induces a depot effect).

`CC[C@H](C)[C@H](N)C(=O)N[C@@H](Cc1c[nH]c2ccccc12)C(=O)N[C@H](C(=O)N[C@H](C(=O)N[C@@H](Cc1c[nH]c2ccccc12)C(=O)N[C@@H](CCCNC(=N)N)C(=O)N[C@@H](CCCNC(=N)N)C(N)=O)[C@@H](C)CC)C(C)C` [HH18, IWVIWRR-NH2] (H-IWVIWRR-NH2; N-terminus assumed) was tested. Which “protection of mice from S. aureus infections (bacterial loads in peritoneal lavage)” value (S. aureus) did it give?
Its value is “Protection of mice from S. aureus infections”.

What about the “induction of IL8” value [1] of the same compound?
Its value is “strongest abilities to induce this chemokine”.

And the “Chemokine induction MCP-1” value ([2]; 20 μg/ml peptide)?
Its value is 1111 pg/mL.

And the “Chemokine induction MCP-1” value ([2]; 100 μg/ml peptide)?
Its value is 9608 pg/mL.

What about the “induction of MCP1” value ([2]; 20 or 100 μg/ml peptide, 24 hours (FIG. 15)) of the same compound?
Its value is “induced”.

And the “Cytokines induced: Gro-α” value (human PBMC)?
The value was 143 pg/mL.

What about the “Cytokines induced: IL-6” value (human PBMC) of the same compound?
Its value is 180 pg/mL.

What about the “Cytokines induced: IL-8” value (human PBMC) of the same compound?
The value was 2558 pg/mL.

And the “Cytokines induced: MCP-1” value (human PBMC)?
Its value is 64 pg/mL.

What about the “Cytokines induced: MCP-3” value (human PBMC) of the same compound?
Its value is 3 pg/mL.

And the “Cytokines induced: TNF-α” value (human PBMC)?
Its value is 56 pg/mL.
